Our source for the TGI and GI50 values is PubChem BioAssay (NCI).

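These data come from cells grown in 96-well plates and exposed to compound for 48 hours at five concentrations. GI50 = concentration required for 50% inhibition of growth. TGI marks complete inhibition of growth.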 Where a SMILES comes first, the peptide text is derived from it. The star is where a group is joined. Palmitoyl = CCCCCCCCCCCCCCCC(=O)*

Common to all, as to test: NCI anticancer screen, dose series, 48 h
In assay [1] the test system is HCC-2998 colon.
The subject of assay [2] is KM12 colon.
Assay [3] has as its system HT29 colon.
Assay [4] deals with ACHN renal.
The subject of assay [5] is UACC-257 melanoma.
Assay [6] deals with MDA-N.
The subject of assay [7] is TK-10 renal.
Assay [8] deals with OVCAR-8 ovarian.
For assay [9], the system named is CAKI-1 renal.

In the case of `[N-]=[N+]=CC(=O)OC(CCl)CCl`, the TGI in assay [1], in assay [2], in assay [3], in [4], in [5] and in assay [6] was greater than 100 µM in each case. This molecule also showed a TGI in [7] greater than 100 µM.

As for `Cc1cc(OP2(=O)NCc3ncccc3O2)ccc1Cl` (stereo not drawn), the TGI in assay [8], in assay [1], in [2], in assay [9], in [4] and in assay [5] was greater than 100 µM each time. For the same molecule, the TGI in [6] was greater than 100 µM.

Consider `O=C1C(=Nc2ccc(Nc3ccccc3)cc2)Oc2ccccc21`, for which the TGI in assay [8] turned out to be 6.07 µM; in assay [1], 23.4 µM; in assay [2], 4.03 µM; in assay [3], 4.53 µM; in assay [9], 7.58 µM; in [4], 9.93 µM. Also, the figures for the TGI in assay [5], in assay [6] and in assay [7] were 4.56 µM, 7.16 µM and 12.2 µM, respectively.

Take `CSc1nc2c(c(N(C)C)n1)C(O)n1c(nc3ccccc31)S2` (stereo not drawn): the TGI in assay [8] was greater than 56.8 µM; in assay [1], greater than 100 µM; in [2], greater than 100 µM; in assay [3], greater than 100 µM; in [9], greater than 100 µM; in assay [4], greater than 100 µM. Further, the TGI in assay [5], in assay [6] and in assay [7] was greater than 100 µM each time.

Turning to `CC(C)(C)N=C(N)NC#N`, the TGI in [8], in [1], in assay [3], in [9], in [4] and in assay [5] was greater than 100 µM each time. The TGI in assay [6] and in assay [7] was greater than 100 µM throughout.

As for `c1ccc(C2=NOC(c3ccccc3)N2C23CC4CC(CC(C4)C2)C3)cc1` (stereo not drawn), the TGI in assay [8], in [1], in [2], in assay [3], in assay [9] and in [4] was greater than 10 µM in each case. Also, the TGI in assay [5], in assay [6] and in [7] was greater than 10 µM in each case.

As for `COc1cc(O)c2c(=O)c(OC)c(-c3ccc(OC)c(O)c3)oc2c1`, the TGI is greater than 100 µM in assay [8]; greater than 100 µM in assay [1]; greater than 100 µM in assay [2]; greater than 100 µM in assay [3]; 74.4 µM in [9]; greater than 100 µM in [4]. Besides, the TGI in assay [5], in assay [6] and in [7] was greater than 100 µM each time.

`Cc1c2c(c(C)n1-c1ccccc1)C(=O)N(CCN1CCN(c3cccc(C(F)(F)F)c3)CC1)C2=O`: the TGI in [8], in assay [1], in assay [2], in assay [3], in assay [9] and in [4] was greater than 100 µM throughout. The TGI in [5], in assay [6] and in assay [7] was greater than 100 µM in each case.

As to `COc1cc(C=O)ccc1O`, the TGI in assay [8], in [1], in assay [2], in [3], in assay [9] and in [4] was greater than 100 µM each time. Besides, the TGI in [5], in assay [6] and in [7] was greater than 100 µM in each case.

`Cc1ccnc(NC(=S)Nc2ccc([N+](=O)[O-])cc2)c1`: the TGI in assay [8], in [1], in assay [2], in [3], in [4] and in [5] was greater than 100 µM each time. In addition, the TGI in [7] is greater than 100 µM.

As to `C=C(C)CNCCN`, the TGI in assay [8], in assay [2], in [3], in assay [9], in assay [4] and in assay [5] was greater than 100 µM in each case. The TGI in [6] and in assay [7] was greater than 100 µM each time.

Turning to `CCCCCCCCCCCCCCCC(=O)N1CCCC1C(=O)NCC(=O)NC(Cc1ccccc1)C(=O)N1CCCC1C(=O)NC(CO)C(=O)NC(Cc1ccc(O)cc1)C(=O)NC(CCCCN)C(=O)NC(CC(C)C)C(=O)NC(CCCN=C(N)N)C(=O)N1CCCC1C(=O)NCC(N)=O` (stereo not drawn) (Palmitoyl-PGFPSYKLRPG-NH2; configuration not given here), the GI50 in assay [8] is 22.1 µM; in assay [1], 10.4 µM; in [2], 2.28 µM; in [3], 15.8 µM; in assay [9] it was 20.9 µM; in assay [5], 14.6 µM. The TGI was 55.4 µM in [8]; 24.1 µM in [1]; 12.7 µM in assay [2]; 29.3 µM in assay [3]; 50.6 µM in assay [9]; 31 µM in assay [5].

Take `CNc1[nH]c(=S)nc2sc3c(c12)CCCC3`: the TGI in assay [8], in assay [1], in assay [2], in [3], in assay [9] and in assay [4] was greater than 75 µM in each case. Further, the TGI in assay [5] and in [7] was greater than 75 µM each time.

For `Nc1ncc2c(n1)-c1ccccc1OC2N1CCCC1` (stereo not drawn), the TGI in [8], in assay [2], in assay [3], in assay [9], in assay [4] and in [5] was greater than 100 µM in each case. Further, the TGI in [6] and in assay [7] was greater than 100 µM in each case.

`COc1cc2c(cc1OCCCCCN1CCN(c3ncnc4ccccc34)CC1)N=CC1CCCN1C2=O` (stereo not drawn): the GI50 in assay [8] is 0.0334 µM; in assay [1], 0.0178 µM; in [2], 0.0289 µM; in assay [3] it was 0.0275 µM; in assay [9], 0.0292 µM; in [4] it was 0.0523 µM. Moreover, in assay [5], the GI50 is 0.0738 µM. In addition, the TGI in [8] was greater than 81.9 µM; in assay [1], 0.0349 µM; in [2] it was 0.952 µM; in assay [3] it was 10.8 µM; in assay [9], 1.17 µM; in [4], 4.15 µM. The TGI in assay [5] came out at 0.568 µM.
